# Patent US8110703B2, “Retinoid derivative and pharmaceutical composition and use thereof” (Anhui Medical University, priority 2008, dated 2012)
# Marks after values point to notes of the source that are not given here.
# What was measured:
# [1] = test system: human acute promyelocytic leukaemia; details: cited from earlier work
# A549 cells [2] = assay: Cell cycle and apoptosis by flow cytometry, A549; format: cell-based; details: A549, 10 μg/ml, 3 days, PI flow cytometry
# Description: 1.4 Detection of Cell Cycle and Apoptosis by Flow Cytometry A549 cells in the logarithmic phase are collected, regulated with the concentrations thereof to 8×10^7/L, inoculated in a 6-hole board, cultured in an incubator (37° C. and 5% CO2). After the cells are adhered, the culture solution is discarded, and a culture solution having drugs with the corresponding concentrations is added and divided into 10 μg/ml drug groups, 10 μg/ml fenretinide groups, cell control groups, solvent control groups (1‰ DMSO and anhydrous ethanol) (11 in total). After 3 days, each group of cells is normally digested, collected, blown into single cell suspension, washed by cold PBS twice, and re-suspend by 10 μl PBS. Fixing and member breaking agents and a PI staining solution are added according to the Coulter DNA detection kit and reacted with one another at the room temperature and out of light for 30 min for machine detection. Each sample detects 10000 cells and repeats for three times, and the data are analyzed by Analysis software for the ratio during the G0-G1, S and G2-M periods and the ratio of apoptotic cells.
# A549 lung cancer cells = assay: MTT cell growth and proliferation experiment, A549; format: cell-based; parameters: key to Inhibition Rate: (control OD570 − test OD570)/control OD570, as fraction; details: A549, MTT time gradient, 10 ug/ml; for Inhibition Rate: fraction
# Description: (§1) 1.1 Reagents 12 retinoic acid derivatives with the final concentrations of 1 ug/ml, 5 ug/ml and 10 ug/ml are synthesized by the Pharmaceutical College of Anhui Medical University using DMSO and anhydrous ethanol, separately packaged for storage at −20° C. and kept out of the light when used, and the final concentration of DMSO is less than 0.1%. MTT is purchased from Sigma Corp. The Coulter DNA detection kit is presented by the Central Lab of Anhui Provincial Hospital. AFP and γ-GT are provided by the Clinical Lab of No. 105 Hospital of PLA. Apoptosis-Hoechst staining kit is purchased from Beyotime Company.
# (§2) 1.2 Cell Culture A549, and HpeG2 cells are stored by our lab. Cell growth condition: DMEM (from GIBICO Company) culture solution is added with 10% of calf serum (purchased from the Hangzhou Sijiqing Biological Engineering Material Co., Ltd.) to culture in a cell culture incubator (37° C., 5% CO2) with saturated humidity.
# (§3) 1.3 Cell Growth and Proliferation Experiments MTT process is used. Cells in the logarithmic phase are picked and seeded on a 96-hole culture board with a cell concentration of 5×10^7/L. Each hole of the board is 200 ul. The next day after the adherence, the original solution is discarded, and the culture solution is added. The cells are divided into 1 ug/ml retinoic acid derivative groups, 5 ug/ml retinoic acid derivative groups, 10 ug/ml retinoic acid derivative groups, blank control groups, cell control groups, solvent control groups (1‰ DMSO and anhydrous ethanol) (17 in total) according to the concentrations thereof, incubated for 3d, added with MTT (5 g/L) of 20 ul/hole for incubation at 37° C. for 4 h. The original solution is carefully discarded and dried, and DMSO of 20 ul/hole is added to dissolve crystals, followed by vibrating for 10 min and determining the OD value at 570 nm. Each concentration is corresponding to 5 holes, and each group calculates the average of 3 experiments to calculate the inhibition rate to the cell growth according to the optical density (OD) average of each hole in each group and the following equation: inhibition rate %=(control hole OD570−experimental hole OD570)/control hole OD5700*100%. The process above is repeated for three times. The second experiment takes the maximum concentration (10 […]) for culture respectively for 1, 2, 3 and 7 days and repeat for three times.
# A549 cells [3] = assay: Differentiation index: CEA secretory volume of A549 cells; format: cell-based; details: A549 culture supernatant, 10 ug/ml, 3 d, DMSO
# Description: 1.6 Detection of Differentiation Index The cultured A549 cells are randomly divided into 6 10 μg/ml drug groups, cell control groups, solvent control groups (DMSO and ethanol) and 10 μg/ml fenretinide control groups (11 in total). The control groups and drug groups are cultured for 3 days to collect respective 3 tubes of cell culture solutions which are centrifugated at a speed of 4000 r/min for 5 min to take the supernatant and detect the CEA content of the kit by using enzyme kinetics and CEA detection.
# HepG2 cells [4] = assay: Cell cycle and apoptosis by flow cytometry, HepG2; format: cell-based; details: HepG2, flow cytometry
# HepG2 cells [5] = assay: γ-GT specific activity of HepG2 cells; format: cell-based; details: DMSO
# liver cancer HepG2 cells = assay: MTT cell growth and proliferation experiment, HepG2; format: cell-based; parameters: key to Inhibition Rate: (control OD570 − test OD570)/control OD570, as fraction; details: for Inhibition Rate: fraction
# Description: as §1, §2, §3
# HepG2 cells [6] = assay: AFP secretory volume of HepG2 cells; format: cell-based; details: for effects on AFP secretory volume (statistics, in words): HepG2, compared with the control groups, P less than 0.05; for AFP: HepG2 cells, DMSO
# NB4 cells = assay: Cell cycle analysis by flow cytometer, NB4; format: cell-based; parameters: S %: dose or concentration left out as unconfirmed; details: 72 h
# Description: (§4) Retinoic acid derivatives and fenretinide are prepared as a storage solution of 10 mg/mL by anhydrous ethanol and stored at […] and kept out of light.
# (§5) NB4 cells and K562 cells are inoculated with an initial concentration of 2*10^5/ml in the RPMI1640 culture solution having 10% of calf serum (FBS), 100 u/ml of penicillin, 100 Lg/ml of streptomycin and 2 mmol/L of glutamine for suspension culture (37° C., 5% CO2). Change the solution every 2-3 days.
# (§6) For the cells above acted by the retinoic acid derivatives and fenretinide ([…]) for 72 h, about 10^6 of them are collected, washed by PBS twice, fixed by 70% of cold ethanol over 24 h, washed by PBS twice, added with 5 ug/ml of propidium iodide for staining and detected by a flow cytometer from which the data are analyzed and processed by the multi-cycle software.
# K562 cells = assay: Cell cycle analysis by flow cytometer, K562; format: cell-based; parameters: S %: dose or concentration left out as unconfirmed; details: 72 h
# Description: as §4, §5, §6
# [7] = HepG2, MTT OD 570 nm, 1 ug/ml, 3 d, solvent not given
# [8] = HepG2, MTT OD 570 nm, 5 ug/ml, 3 d, solvent not given
# [9] = HepG2, MTT OD 570 nm, 10 ug/ml, 3 d, solvent not given
# [10] = HepG2, MTT time gradient, 10 ug/ml, 1 d
# [11] = HepG2, MTT time gradient, 10 ug/ml, 2 d
# [12] = HepG2, MTT time gradient, 10 ug/ml, 3 d
# [13] = HepG2, MTT time gradient, 10 ug/ml, 7 d
# [14] = HepG2, MTT, 1 ug/ml, 3 d, solvent not given
# [15] = HepG2, MTT, 5 ug/ml, 3 d, solvent not given
# [16] = HepG2, MTT, 10 ug/ml, 3 d, solvent not given
# [17] = HepG2, Table 5 repeat MTT, 10 ug/ml, 3 days, DMSO
smiles,measurement,setting,value
"CC1=C(/C=C/C(C)=C/C=C/C(C)=C/C(=O)O)C(C)(C)CCC1 [ATRA, all-trans retinoic acid]",incidence rate of increased leukocyte count,"[1]; during the treatment of APL, reported abroad",about 30%
same,complete remission rate,"[1]; human acute promyelocytic leukaemia, 5-year clinic summary",86%
"CC1=C(/C=C/C(C)=C/C=C/C(C)=C/C(=O)Nc2ccc(C(F)(F)F)cc2)C(C)(C)CCC1 [Example 3a-01, (4-trifluoromethylphenyl)-(all-trans)-3,7-dimethyl-9-(2,6,6-trimethyl-1-cyclohexen-1-yl)-2,4,6,8-nonatetraenoic acid amide]",Apoptosis Rate (%),A549 cells [2],17.6%
same,G0-G1 (%),A549 cells [2],55.6%
same,G2-M (%),A549 cells [2],2.41%
same,S %,A549 cells [2],24.9%
same,OD Value (x ± s),A549 lung cancer cells; 1 d,0.680 ± 0.055
same,Inhibition Rate,A549 lung cancer cells; 1 d,0.258
same,OD Value (x ± s),A549 lung cancer cells; 2 d,1.042 ± 0.046
same,Inhibition Rate,A549 lung cancer cells; 2 d,0.288
same,OD Value (x ± s),A549 lung cancer cells; 3 d,0.623 ± 0.006
same,Inhibition Rate,A549 lung cancer cells; 3 d,0.328
same,OD Value (x ± s),A549 lung cancer cells; 7 d,1.325 ± 0.028
same,Inhibition Rate,A549 lung cancer cells; 7 d,0.361
same,CEA,A549 cells [3],2.9 µg/L
same,Apoptosis Rate (%),HepG2 cells [4],16.5* %
same,G0-G1 (%),HepG2 cells [4],56.3%
same,G2-M (%),HepG2 cells [4],4.14%
same,S %,HepG2 cells [4],24.8%
same,γ-GT,HepG2 cells [5],52.3 ± 1.5 U/L
same,OD Value (x ± s),liver cancer HepG2 cells; [7],1.13 ± 0.16
same,OD Value (x ± s),liver cancer HepG2 cells; [8],1.13 ± 0.45
same,OD Value (x ± s),liver cancer HepG2 cells; [9],0.86 ± 0.13
same,OD Value (x ± s),liver cancer HepG2 cells; [10],1.52 ± 0.13
same,Inhibition Rate,liver cancer HepG2 cells; [10],0.12
same,OD Value (x ± s),liver cancer HepG2 cells; [11],0.71 ± 0.02
same,Inhibition Rate,liver cancer HepG2 cells; [11],0.42
same,OD Value (x ± s),liver cancer HepG2 cells; [12],0.77 ± 0.03
same,Inhibition Rate,liver cancer HepG2 cells; [12],0.54
same,OD Value (x ± s),liver cancer HepG2 cells; [13],0.30 ± 0.08
same,Inhibition Rate,liver cancer HepG2 cells; [13],0.77
same,Inhibition Rate,liver cancer HepG2 cells; [14],0.33
same,Inhibition Rate,liver cancer HepG2 cells; [15],0.33
same,Inhibition Rate,liver cancer HepG2 cells; [16],0.49
same,OD Value (x ± s),liver cancer HepG2 cells; [17],0.978 ± 0.072
same,Inhibition Rate,liver cancer HepG2 cells; [17],0.548*
same,"effects on AFP secretory volume (statistics, in words)",HepG2 cells [6],meaningful in statistics
same,AFP,HepG2 cells [6],13.6* ug/L
"CC1=C(/C=C/C(C)=C/C=C/C(C)=C/C(=O)Nc2ccc(OC(F)(F)F)cc2)C(C)(C)CCC1 [Example 6a-01, (4-trifluoromethoxyphenyl)-(all-trans)-3,7-dimethyl-9-(2,6,6-trimethyl-1-cyclohexen-1-yl)-2,4,6,8-nonatetraenoic acid amide]",Apoptosis Rate (%),A549 cells [2],30.5%
same,G0-G1 (%),A549 cells [2],40.1%
same,G2-M (%),A549 cells [2],2.34%
same,S %,A549 cells [2],27.9%
same,OD Value (x ± s),A549 lung cancer cells; 1 d,0.646 ± 0.019
same,Inhibition Rate,A549 lung cancer cells; 1 d,0.296
same,OD Value (x ± s),A549 lung cancer cells; 2 d,0.909 ± 0.065
same,Inhibition Rate,A549 lung cancer cells; 2 d,0.378
same,OD Value (x ± s),A549 lung cancer cells; 3 d,0.567 ± 0.057
same,Inhibition Rate,A549 lung cancer cells; 3 d,0.389
same,OD Value (x ± s),A549 lung cancer cells; 7 d,1.243 ± 0.024
same,Inhibition Rate,A549 lung cancer cells; 7 d,0.401
same,G1 %,NB4 cells,38.24%
same,G2 %,NB4 cells,2.70%
same,S %,NB4 cells,59.06%
same,CEA,A549 cells [3],2.9 µg/L
same,G1 %,K562 cells,34.2%
same,G2 %,K562 cells,9.4%
same,S %,K562 cells,56.4%
same,Apoptosis Rate (%),HepG2 cells [4],11.1%
same,G0-G1 (%),HepG2 cells [4],57.4%
same,G2-M (%),HepG2 cells [4],5.30%
same,S %,HepG2 cells [4],26.7%
same,γ-GT,HepG2 cells [5],58.0 ± 1.5 U/L
same,OD Value (x ± s),liver cancer HepG2 cells; [7],0.97 ± 0.29
same,OD Value (x ± s),liver cancer HepG2 cells; [8],0.89 ± 0.14
same,OD Value (x ± s),liver cancer HepG2 cells; [9],0.89 ± 0.30
same,OD Value (x ± s),liver cancer HepG2 cells; [10],1.28 ± 0.07
same,Inhibition Rate,liver cancer HepG2 cells; [10],0.06
same,OD Value (x ± s),liver cancer HepG2 cells; [11],1.55 ± 0.11
same,Inhibition Rate,liver cancer HepG2 cells; [11],0.10
same,OD Value (x ± s),liver cancer HepG2 cells; [12],1.24 ± 0.18
same,Inhibition Rate,liver cancer HepG2 cells; [12],0.26
same,OD Value (x ± s),liver cancer HepG2 cells; [13],0.62 ± 0.13
same,Inhibition Rate,liver cancer HepG2 cells; [13],0.50
same,Inhibition Rate,liver cancer HepG2 cells; [14],0.42
same,Inhibition Rate,liver cancer HepG2 cells; [15],0.47
same,Inhibition Rate,liver cancer HepG2 cells; [16],0.47
same,OD Value (x ± s),liver cancer HepG2 cells; [17],1.163 ± 0.102
same,Inhibition Rate,liver cancer HepG2 cells; [17],0.463*
same,"effects on AFP secretory volume (statistics, in words)",HepG2 cells [6],meaningful in statistics
same,AFP,HepG2 cells [6],13.6* ug/L
